Assay results taken from patent US20250002526A1, “PHARMACEUTICAL COMPOSITION HAVING ANTI-CANCER IMMUNOSTIMULATING EFFECT AND/OR IMMUNE CHECKPOINT INHIBITION POTENTIATING EFFECT” (KYUSHU UNIVERSITY, NATIONAL UNIVERSITY CORPORATION, priority 2021, published 2025).
Entries after “also recorded” stand apart in the source; their conditions may differ. Read-outs that look alike come from different tables or passages of the source.

Experiments:
E0771-SULT-OVA cells = experiment: In vivo tumor growth of E0771-SULT-OVA cells with OTII T cell transfer; design: species or system mouse; details: activated OTII T cells i.v. day 9, cholenoic acid oral days 12, 13 and 14
Procedure: In T cell transfer experiment, activated OTII CD4^+ T cells (2×10^6) and OTI CD8^+ T cells (5×10^5) were intravenously injected into tumor-bearing mice (see experimental results (4)).
(§1) Cholenoic acid was suspended in 0.5% (w/v) methylcellulose 400 solution (FUJIFILM Wako Pure Chemical Corporation) at a proportion of 50 mg/ml, and a 200-μl portion (10 mg) of the suspension was orally administered to mice (see experimental results (6)). To examine the effect on the tumor infiltration of OTII cells or OTI T cells, 5 mg of cholenoic acid was orally administered three times at intervals of 6 hours in 2 days before the assay.
CD4^+ T cells or CD8^+ T cells were magnetically selected from the spleen and peripheral lymph nodes of OTII and OTI TCR transgenic mice with Dynabeads mouse CD4 (Invitrogen), and then treated with DETACHaBEAD™ mouse CD4 (Invitrogen) or separated with a CD8a^+ T Cell Isolation Kit (Miltenyi Biotec). […]
(§2) The growth of tumors was monitored by measuring the vertical diameters of each tumor with a caliper twice a week and calculating the tumor volumes from the following expression.

E0771-SULT-PD-L1 cells = experiment: In vivo tumor growth of E0771-SULT-PD-L1 cells with anti-PD-L1 antibody treatment; design: species or system mouse; details: oral cholenoic acid combined with anti-PD-L1 antibody, days 9, 12 and 15 after transplantation
Procedure: As described later for each experiment, 200 μl of an anti-mouse PD-L1 antibody (10F.9G2, 0.5 mg/ml, BioXCell) or a control of the matched isotype (LTF-2, 0.5 mg/ml, BioXCell) was intraperitoneally injected into tumor-bearing mice (see experimental results (3)).
as §1, with “assay. […]” for “assay.”
as §2

E0771-SULT cells = experiment: Oral cholenoic acid in mice with transplanted E0771-SULT cells: CS production and CD8+ T cell infiltration in tumor; assay type: in vivo, mouse
[1] = tested on: SULT2B1b-mediated CS production in E0771-SULT cells; experiment: CS production inhibitory effect in E0771-SULT cells (LC/MS/MS quantification of CS); assay type: cell-based, mouse; details: Mus musculus; for activity at 10 µM: relative to control (100%)
How it was run: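 Mouse E0771 breast cancer cells expressing SULT2B1b, seeded at 5×10^5 cells/well and cultured 24 h with or without test compound. CS extracted with deuterated internal standards and quantified by LC/MS/MS (ESI, MRM) against calibration curves. Values are % of CS production in untreated cells.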

For `C[C@H](CCC(=O)O)[C@H]1CC[C@H]2[C@@H]3CC=C4C[C@@H](O)CC[C@]4(C)[C@H]3CC[C@]12C` [Compound 1, (R)-4-((3S,8S,9S,10R,13R,14S,17R)-3-hydroxy-10,13-dimethyl-2,3,4,7,8,9,10,11,12,13,14,15,16,17-tetradecahydro-1H-cyclopenta[a]phenanthren-17-yl)pentanoic acid], the “growth of E0771-SULT-OVA cells / anti-tumor immunity of OTII T cells” value (E0771-SULT-OVA cells) was “recovery of the effect of OTII cell or OTI T cell transplantation; also recorded: the growth of E0771-SULT-OVA cells was suppressed”, the “growth of E0771-SULT-PD-L1 cells (tumor volume)” value (E0771-SULT-PD-L1 cells) was “renders E0771-SULT-PD-L1 cells susceptible to immune checkpoint inhibition; also recorded: causes the growth of E0771-SULT-PD-L1 cells (tumor volume) to be suppressed” and the “CS production in tumor” value (E0771-SULT cells; oral administration on days 5, 6 and 7, analysed day 8, listed as cholenoic acid) was “local reduction in CS production; also recorded: locally inhibited”. The “CD8+ T cell infiltration in tumor” value (E0771-SULT cells; oral administration on days 5, 6 and 7, low CS region on day 8) was “CD8^+ T cell infiltration was induced”, the activity at 10 µM ([1]; 24 h, read-out: CS production % activity at 10 μM, E0771-SULT cells, 24 hours, test compound 10 μM (Table 1)) was 35.8% and the activity at 10 µM ([1]; 24 h, read-out: CS production % activity at 10 μM, E0771-SULT cells, 24 hours, third concentration column of Table 1, head again printed 10 μM) was 47.1%. It also gave an activity at 20 µM ([1]; 24 h, read-out: CS production % activity at 20 μM, E0771-SULT cells, 24 hours, test compound 20 μM, relative to control without compound (100%)) of 30.8% and an IC50 ([1]; read-out: IC50 value (CS production)) of 5.8 µM.
